In test [1] the test system is Escherichia coli. Description: Antibacterial activity against AcrAB deficient Escherichia coli SM1411 after 18 hrs by broth microdilution method. In kind it is functional, organism-based. Background: Dilution methods test growth across graded concentrations, often in twofold steps.
The subject of test [2] is Escherichia coli. Put plainly: Inhibition of Escherichia coli MurF assessed as residual activity at 250 uM by malachite green assay.
The next test relates to Staphylococcus aureus. Put plainly: Antibacterial activity against Staphylococcus aureus 8325-4 after 18 hrs by broth microdilution method. In kind it is functional.
The test system of test [3] is Escherichia coli. Description: Antibacterial activity against Escherichia coli 1411 after 18 hrs by broth microdilution method. In kind it is functional, organism-based.
A short description of test [4]: Inhibition of Escherichia coli MurD assessed as blockade of addition of D-[14C]Glu to UDP-MurNAc-L-Ala.
In test [5] the test system is Escherichia coli. Description: Inhibition of Escherichia coli MurD assessed as residual activity at 250 uM by malachite green assay.
Test [6] is described as follows: Inhibition of Escherichia coli MurF.

Among the data in ChEMBL document CHEMBL1152765, “Discovery of new inhibitors of the bacterial peptidoglycan biosynthesis enzymes MurD and MurF by structure-based virtual screening” (Bioorg Med Chem, 2009) are Activity, IC50 and MIC values, retold here.

≈ marks a conversion by molar mass, not a printed value. Calls of active or inactive are those of the source. No cut-off for these calls is given here. Where only a bound is given, the exact number is not on record here.

Consider `O=S(=O)(O)c1cc(/N=[N+](\[O-])c2cc(S(=O)(=O)O)c3ccccc3c2)cc2ccccc12`, for which the result with Escherichia coli [1], with Staphylococcus aureus and in the test on Escherichia coli [3] was inactive. Besides, the Activity in the test with Escherichia coli [2] is under 50%.
On to `CCCCCCCCCCCCN(C)C`, for which the outcome in the test with Escherichia coli [1], with Staphylococcus aureus and in the test on Escherichia coli [3] was inactive. Also, in the test with Escherichia coli [2], the Activity was under 50%.
For the compound `O=C1/C(=N/CCc2cc(Br)c(O)c(Br)c2)C=C(O)c2cccnc21`, the outcome with Escherichia coli [1], in the test with Staphylococcus aureus and with Escherichia coli [3] was inactive. Moreover, the Activity in the test with Escherichia coli [2] is under 50%.
For orientation: IC50 means the concentration needed to halve the response being measured. Take `O=C(O)/C=C/c1c2ccc(=O)c(O)c-2oc2c(O)c(O)ccc12`: in test [4], the IC50 was found to be 47 µM. In addition, the Activity with Escherichia coli [5] is under 50%. The outcome in the test with Escherichia coli [1], in the test on Staphylococcus aureus and in the test on Escherichia coli [3] was inactive.
Take `O=C(O)c1c(Cl)c(Cl)c(Cl)c(Cl)c1C(=O)Nc1ccc2cn[nH]c2c1`: the outcome in the test with Escherichia coli [1], in the test with Staphylococcus aureus and in the test on Escherichia coli [3] was inactive. In addition, the Activity with Escherichia coli [2] was under 50%.
For the compound `CC1C2C=CC1C(c1c3ccc(=O)c(O)c-3oc3c(O)c(O)ccc13)C2C(=O)O` (stereo unspecified), the IC50 in test [4] amounted to 43 µM. Also, the outcome in the test on Escherichia coli [1], with Staphylococcus aureus and in the test on Escherichia coli [3] was inactive.
Turning to `O=C(O)C1C(C(=O)O)C2(Cl)C(Cl)=C(Cl)C1(Cl)C2(Cl)Cl` (stereo unspecified), in the test on Escherichia coli [5], the Activity is under 50%. The outcome in the test on Escherichia coli [1], in the test with Staphylococcus aureus and in the test on Escherichia coli [3] was inactive.
As for `FC(F)(F)c1nc2ccc(SSc3ccc4nc(C(F)(F)F)[nH]c4c3)cc2[nH]1`, the outcome in the test on Escherichia coli [1], in the test with Staphylococcus aureus and in the test on Escherichia coli [3] was inactive. In addition, the Activity in the test on Escherichia coli [2] was under 50%.
For `O=C(O)c1cc2c(cc1S(=O)(=O)O)C1C(C3C2C2(Cl)C(Cl)=C(Cl)C3(Cl)C2(Cl)Cl)C2(Cl)C(Cl)=C(Cl)C1(Cl)C2(Cl)Cl` (stereo unspecified), the IC50 in test [4] amounted to 34 µM. Further, in the test with Escherichia coli [5], the Activity was under 50%. Also, the result with Escherichia coli [1], in the test on Staphylococcus aureus and in the test with Escherichia coli [3] was inactive.
As to `CSc1ccc2c(c1)c(CCN)c(C)n2Cc1ccccc1Cl`, the result with Escherichia coli [1], in the test on Staphylococcus aureus and with Escherichia coli [3] was inactive. For the same compound, the Activity in the test with Escherichia coli [2] is under 50%.
Broadly, the MIC is the lowest concentration that inhibits growth of the organism. Read a low MIC as a more susceptible organism. `Oc1nc(S)nc(SCc2c(Cl)c(Cl)c(Cl)c(Cl)c2Cl)n1` registered an IC50 in test [6] of 63 µM. Moreover, in the test with Escherichia coli [1], the result was Active. The Activity in the test with Escherichia coli [2] was under 50%. For the same compound, the MIC with Staphylococcus aureus was determined as 128 µg/mL (≈ 302 µM).
Take `Oc1ccccc1C(Sc1nc2ccccc2s1)Sc1nc2ccccc2s1`: the outcome in the test with Escherichia coli [1], in the test with Staphylococcus aureus and in the test on Escherichia coli [3] was inactive. For the same compound, the Activity with Escherichia coli [2] was under 50%.
As for `O=S(=O)(O)c1ccc2c(/N=N/c3c(O)ccc4ccccc34)cccc2c1`, the result in the test with Escherichia coli [1], in the test with Staphylococcus aureus and with Escherichia coli [3] was inactive. For the same compound, in the test with Escherichia coli [2], the Activity was under 50%.
In the case of `Sc1nnc(SCc2ccccc2Cl)c2nc[nH]c12`, the result with Escherichia coli [1], with Staphylococcus aureus and with Escherichia coli [3] was inactive. For the same compound, the Activity with Escherichia coli [2] was under 50%.
Regarding `O=C(O)c1c(Br)c(Br)c(Br)c(Br)c1C1c2ccc(O)cc2Oc2cc(O)ccc21`, in test [4], the IC50 was 10 µM. Besides, in the test on Escherichia coli [5], the Activity is under 50%. Also, the result with Escherichia coli [1], with Staphylococcus aureus and in the test with Escherichia coli [3] was inactive.
Turning to `CCOc1ccc2c(c1)C=C/C(=C/C=C1\C=C(C)c3cccnc3C1=O)N2C`, the result in the test with Escherichia coli [1], in the test with Staphylococcus aureus and in the test on Escherichia coli [3] was inactive. Also, the Activity in the test with Escherichia coli [2] was under 50%.
On to `Nc1c(S(=O)(=O)O)cc(Nc2cccc(S(N)(=O)=O)c2)c2c1C(=O)c1ccccc1C2=O`, for which the outcome with Escherichia coli [1], in the test on Staphylococcus aureus and in the test on Escherichia coli [3] was inactive. Also, the Activity with Escherichia coli [2] is under 50%.
